Laboratory results: patent US7956039B2, “Use of amygdalin analogues for the treatment of psoriasis” (Universitat Politècnica De Catalunya, priority 2004, dated 2011)

What was measured:
[1] = test system: Blood mononuclear cells; test: Monocyte chemotaxis assay in modified Boyden chamber; type: cell-based, human; details: for −log[A] (concentration of maximum chemotactic index): concentration [A] at which the maximum chemotactic index occurs; for Chemotactic index (maximum value): ratio of migration distance towards attractant to distance towards buffer, tested 10^−12 to 10^−7 mol/L
Method: Activity of Compounds (I) in Monocyte Chemotaxis Assays
Blood mononuclear cells were isolated from heparinized blood of human volunteers by Ficoll sedimentation. Chemotaxis was measured in a modified Boyden chamber using a Millipore […] that divided the upper and lower compartments. Mononuclear cells (0.5×10^6) in Krebs-Ringer phosphate (KRP) buffer were placed into the upper wells. Compounds (I) were dissolved in DMSO at 10^−2 mol/L, diluted with KRP buffer containing 1 mg/mL of bovine serum albumin and tested in the bottom compartment at a final concentration ranging from 10^−12 to 10^−7 mol/L. For an accurate comparison, the results of the different analogues were expressed as chemotactic index, which is the ratio of the distance of migration towards tested attractant and the distance towards the buffer. Migration in the presence of buffer was only […] (mean±SEM). Maximum migration for CHO-Met-Leu-Phe-OH (FMLP) occurred at 10^−8 mol/L and was […] in these experiments (chemotactic index 1.94±0.03). CD4 receptor binding for the test analogues was confirmed by blocking their chemotactic effects using low concentrations (0.1-0.2 mg/mL) of OKT4, a specific monoclonal antibody for CD4 molecules. In this test, migration response was not influenced by OKT4.

[2] = test system: monocytes; details: cited from earlier work

## C#CC(O[C@@H]1O[C@H](CO[C@@H]2O[C@H](CO)[C@@H](O)[C@H](O)[C@H]2O)[C@@H](O)[C@H](O)[C@H]1O)c1ccccc1 (stereo partly drawn) [Compound (I-8), (1 RS) 1-phenyl-2-propynyl-6-O-(β-D-Glucopyranosyl)-β-D-glucopyranoside]
[1]
  −log[A] (concentration of maximum chemotactic index): 6
  Chemotactic index (maximum value): 0.79

## CC(O[C@@H]1O[C@H](CO[C@@H]2O[C@H](CO)[C@@H](O)[C@H](O)[C@H]2O)[C@@H](O)[C@H](O)[C@H]1O)c1ccccc1 (stereo partly drawn) [Compound (I-3), (1 RS)-1-phenylethyl-6-O-(β-D-glucopyranosyl)-β-D-glucopyranoside]
[1]
  −log[A] (concentration of maximum chemotactic index): 8
  Chemotactic index (maximum value): 0.77

## COc1ccc(CO[C@@H]2O[C@H](CO[C@@H]3O[C@H](CO)[C@@H](O)[C@H](O)[C@H]3O)[C@@H](O)[C@H](O)[C@H]2O)cc1 [Compound (I-1), 4-methoxybenzyl 6-O-(β-D-glucopyranosyl)-β-D-Glucopyranoside]
[1]
  −log[A] (concentration of maximum chemotactic index): 10
  Chemotactic index (maximum value): 0.87

## OC[C@H]1O[C@@H](OC[C@H]2O[C@@H](OCc3ccccc3)[C@H](O)[C@@H](O)[C@@H]2O)[C@H](O)[C@@H](O)[C@@H]1O [Compound (I-2), benzyl 6-O-(β-D-glucopyranosyl)4-D-glycopyranoside]
[1]
  −log[A] (concentration of maximum chemotactic index): 8
  Chemotactic index (maximum value): 0.76

## CCC(O[C@@H]1O[C@H](CO[C@@H]2O[C@H](CO)[C@@H](O)[C@H](O)[C@H]2O)[C@@H](O)[C@H](O)[C@H]1O)c1ccccc1 (mixture of isomers) [Compound (I-4), (1 RS)-1-phenylpropyl 6-O-(β-D-glucopyranosyl)-β-D-glucopyranoside]
[1]
  −log[A] (concentration of maximum chemotactic index): 6
  Chemotactic index (maximum value): 0.75

## COc1ccc(CO[C@@H]2O[C@H](CO[C@@H]3O[C@H](CO)[C@@H](O)[C@H](O)[C@H]3O)[C@@H](O)[C@H](O)[C@H]2O)c(OC)c1 [Compound (I-11), 2.4-dimethoxybenzyl 6-O-(β-D-glucopyranosyl)-β-D-glucopyranoside]
[1]
  −log[A] (concentration of maximum chemotactic index): 10
  Chemotactic index (maximum value): 0.84

## N#C[C@H](O[C@@H]1O[C@H](CO[C@@H]2O[C@H](CO)[C@@H](O)[C@H](O)[C@H]2O)[C@@H](O)[C@H](O)[C@H]1O)c1ccccc1 [Amygdalin, amygdalin]
[2]
  Chemotactic profile compared with peptide T: chemotactic profile similar to that of peptide T
[1]
  −log[A] (concentration of maximum chemotactic index): 10
  Chemotactic index (maximum value): 0.63

## OC[C@H]1O[C@@H](OC[C@H]2O[C@@H](OCCc3ccccc3)[C@H](O)[C@@H](O)[C@@H]2O)[C@H](O)[C@@H](O)[C@@H]1O [Compound (I-17), 2-phenylethyl 6-O-(β-D-glucopyranosyl)-β-D-glucopyranoside]
[1]
  −log[A] (concentration of maximum chemotactic index): 9
  Chemotactic index (maximum value): 0.70

## CHO-Met-Leu-Phe-OH [FMLP, reference compound]
[1]
  Concentration of maximum migration: 10^−8 mol/L
[1]; at maximum migration, 10^−8 mol/L
  Chemotactic index: 1.94±0.03

## O=C(O)[C@H](O[C@@H]1O[C@H](CO[C@@H]2O[C@H](CO)[C@@H](O)[C@H](O)[C@H]2O)[C@@H](O)[C@H](O)[C@H]1O)c1ccccc1 [Compound (I-6), (2R) (6-O-(β-D-glucopyranosyl)-β-D-glucopyranosyloxy)-phenylacetic acid]
[1]
  −log[A] (concentration of maximum chemotactic index): 9
  Chemotactic index (maximum value): 0.85

## NC(=O)[C@H](O[C@@H]1O[C@H](CO[C@@H]2O[C@H](CO)[C@@H](O)[C@H](O)[C@H]2O)[C@@H](O)[C@H](O)[C@H]1O)c1ccccc1 [Compound (I-7)]
[1]
  −log[A] (concentration of maximum chemotactic index): 7
  Chemotactic index (maximum value): 0.84

## CC(C)(C)C(O[C@@H]1O[C@H](CO[C@@H]2O[C@H](CO)[C@@H](O)[C@H](O)[C@H]2O)[C@@H](O)[C@H](O)[C@H]1O)c1ccccc1 (mixture of isomers) [Compound (I-5), (1RS) 1-phenyl-2,2-dimethylpropyl-6-O-(β-D-glucopyranosyl)-β-D-glucopyranoside]
[1]
  −log[A] (concentration of maximum chemotactic index): 9
  Chemotactic index (maximum value): 0.84

## OC[C@H]1O[C@@H](OC[C@H]2O[C@@H](OCc3ccccc3Cl)[C@H](O)[C@@H](O)[C@@H]2O)[C@H](O)[C@@H](O)[C@@H]1O [Compound (I-10), 2-chlorobenzyl 6-O-(β-D-gluconyranosyl)-β-D-Glucopyranoside]
[1]
  −log[A] (concentration of maximum chemotactic index): 10
  Chemotactic index (maximum value): 0.94
